# Assay results taken from PubChem BioAssay (NCI).
#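 These data come from cells grown in 96-well plates and exposed to compound for 48 hours at five concentrations. GI50 = concentration required for 50% inhibition of growth. The concentration for full growth arrest is given as TGI.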
# Legend:
# Experiment in all cases: NCI anticancer screen, dose series, 48 h
# 786-0 renal = system: 786-0 renal
# A498 renal = system: A498 renal
# A549 NSCLC = system: A549 NSCLC
# ACHN renal = system: ACHN renal
# BT-549 breast = system: BT-549 breast
# CAKI-1 renal = system: CAKI-1 renal
# CCRF-CEM leukemia = system: CCRF-CEM leukemia
# COLO 205 colon = system: COLO 205 colon
# DU-145 prostate = system: DU-145 prostate
# EKVX NSCLC = system: EKVX NSCLC
# HCC-2998 colon = system: HCC-2998 colon
# HCT-116 colon = system: HCT-116 colon
# HCT-15 colon = system: HCT-15 colon
# HL-60(TB) leukemia = system: HL-60(TB) leukemia
# HOP-62 NSCLC = system: HOP-62 NSCLC
# HOP-92 NSCLC = system: HOP-92 NSCLC
# HS 578T breast = system: HS 578T breast
# HT29 colon = system: HT29 colon
# IGROV1 ovarian = system: IGROV1 ovarian
# K-562 leukemia = system: K-562 leukemia
# KM12 colon = system: KM12 colon
# LOX IMVI melanoma = system: LOX IMVI melanoma
# M14 melanoma = system: M14 melanoma
# MALME-3M melanoma = system: MALME-3M melanoma
# MCF7 breast = system: MCF7 breast
# MDA-MB-231 breast = system: MDA-MB-231 breast
# MDA-MB-435 = system: MDA-MB-435
# MOLT-4 leukemia = system: MOLT-4 leukemia
# NCI-H226 lung = system: NCI-H226 lung
# NCI-H460 lung = system: NCI-H460 lung
# NCI-H522 lung = system: NCI-H522 lung
# NCI/ADR-RES ovarian = system: NCI/ADR-RES ovarian
# OVCAR-3 ovarian = system: OVCAR-3 ovarian
# OVCAR-4 ovarian = system: OVCAR-4 ovarian
# OVCAR-5 ovarian = system: OVCAR-5 ovarian
# OVCAR-8 ovarian = system: OVCAR-8 ovarian
# PC-3 prostate = system: PC-3 prostate
# RPMI-8226 leukemia = system: RPMI-8226 leukemia
# RXF 393 renal = system: RXF 393 renal
# SF-268 CNS = system: SF-268 CNS
# SF-295 CNS = system: SF-295 CNS
# SF-539 CNS = system: SF-539 CNS
# SK-MEL-2 melanoma = system: SK-MEL-2 melanoma
# SK-MEL-28 melanoma = system: SK-MEL-28 melanoma
# SK-MEL-5 melanoma = system: SK-MEL-5 melanoma
# SK-OV-3 ovarian = system: SK-OV-3 ovarian
# SN12C renal = system: SN12C renal
# SNB-19 CNS = system: SNB-19 CNS
# SNB-75 CNS = system: SNB-75 CNS
# SR leukemia = system: SR leukemia
# SW-620 colon = system: SW-620 colon
# T-47D breast = system: T-47D breast
# TK-10 renal = system: TK-10 renal
# U251 CNS = system: U251 CNS
# UACC-257 melanoma = system: UACC-257 melanoma
# UACC-62 melanoma = system: UACC-62 melanoma
# UO-31 renal = system: UO-31 renal
structure (smiles),measurement,setting,value
O=C(CSc1nc2ccccc2c(=O)n1-c1ccc(Cl)cc1)N/N=C/c1ccc(Oc2ccc(Cl)cc2)cc1,GI50,786-0 renal,2.51 µM
same,TGI,786-0 renal,6.42 µM
same,GI50,A498 renal,1.94 µM
same,TGI,A498 renal,4.35 µM
same,GI50,A549 NSCLC,3.25 µM
same,TGI,A549 NSCLC,14 µM
same,GI50,ACHN renal,4.36 µM
same,TGI,ACHN renal,15.2 µM
same,GI50,BT-549 breast,3.28 µM
same,TGI,BT-549 breast,12.2 µM
same,GI50,CAKI-1 renal,3.06 µM
same,TGI,CAKI-1 renal,12 µM
same,GI50,CCRF-CEM leukemia,3.09 µM
same,TGI,CCRF-CEM leukemia,48.5 µM
same,GI50,COLO 205 colon,2.79 µM
same,TGI,COLO 205 colon,8.74 µM
same,GI50,DU-145 prostate,3.52 µM
same,TGI,DU-145 prostate,20.4 µM
same,GI50,EKVX NSCLC,3.1 µM
same,TGI,EKVX NSCLC,13.9 µM
same,GI50,HCC-2998 colon,1.92 µM
same,TGI,HCC-2998 colon,3.81 µM
same,GI50,HCT-116 colon,1.55 µM
same,TGI,HCT-116 colon,3.74 µM
same,GI50,HCT-15 colon,2.41 µM
same,TGI,HCT-15 colon,7.49 µM
same,GI50,HL-60(TB) leukemia,16 µM
same,TGI,HL-60(TB) leukemia,37 µM
same,GI50,HOP-62 NSCLC,1.69 µM
same,TGI,HOP-62 NSCLC,4.05 µM
same,GI50,HOP-92 NSCLC,2.07 µM
same,TGI,HOP-92 NSCLC,5.62 µM
same,GI50,HS 578T breast,2.17 µM
same,TGI,HS 578T breast,6.36 µM
same,GI50,HT29 colon,2.14 µM
same,TGI,HT29 colon,11.1 µM
same,GI50,IGROV1 ovarian,1.51 µM
same,TGI,IGROV1 ovarian,3.28 µM
same,GI50,K-562 leukemia,4.15 µM
same,TGI,K-562 leukemia,20.2 µM
same,GI50,KM12 colon,2.04 µM
same,TGI,KM12 colon,5 µM
same,GI50,LOX IMVI melanoma,1.29 µM
same,TGI,LOX IMVI melanoma,2.59 µM
same,GI50,M14 melanoma,1.58 µM
same,TGI,M14 melanoma,3.47 µM
same,GI50,MALME-3M melanoma,1.38 µM
same,TGI,MALME-3M melanoma,2.77 µM
same,GI50,MCF7 breast,2.01 µM
same,TGI,MCF7 breast,5.5 µM
same,GI50,MDA-MB-231 breast,1.79 µM
same,TGI,MDA-MB-231 breast,3.9 µM
same,GI50,MDA-MB-435,1.93 µM
same,TGI,MDA-MB-435,4.56 µM
same,GI50,MOLT-4 leukemia,2.29 µM
same,TGI,MOLT-4 leukemia,9.23 µM
same,GI50,NCI-H226 lung,2.46 µM
same,TGI,NCI-H226 lung,6.59 µM
same,GI50,NCI-H460 lung,0.788 µM
same,TGI,NCI-H460 lung,2.6 µM
same,GI50,NCI-H522 lung,2.34 µM
same,TGI,NCI-H522 lung,8.31 µM
same,GI50,NCI/ADR-RES ovarian,1.64 µM
same,TGI,NCI/ADR-RES ovarian,3.56 µM
same,GI50,OVCAR-3 ovarian,2.75 µM
same,TGI,OVCAR-3 ovarian,9.55 µM
same,GI50,OVCAR-4 ovarian,1.89 µM
same,TGI,OVCAR-4 ovarian,4.57 µM
same,GI50,OVCAR-5 ovarian,2.27 µM
same,TGI,OVCAR-5 ovarian,6.44 µM
same,GI50,OVCAR-8 ovarian,2.41 µM
same,TGI,OVCAR-8 ovarian,6.56 µM
same,GI50,PC-3 prostate,2.58 µM
same,TGI,PC-3 prostate,9.32 µM
same,GI50,RPMI-8226 leukemia,2.98 µM
same,TGI,RPMI-8226 leukemia,15.8 µM
same,GI50,RXF 393 renal,1.7 µM
same,TGI,RXF 393 renal,3.14 µM
same,GI50,SF-268 CNS,3.85 µM
same,TGI,SF-268 CNS,23.9 µM
same,GI50,SF-295 CNS,3.61 µM
same,TGI,SF-295 CNS,13.3 µM
same,GI50,SF-539 CNS,2.54 µM
same,TGI,SF-539 CNS,6.32 µM
same,GI50,SK-MEL-2 melanoma,2.86 µM
same,TGI,SK-MEL-2 melanoma,8.93 µM
same,GI50,SK-MEL-28 melanoma,1.51 µM
same,TGI,SK-MEL-28 melanoma,3.01 µM
same,GI50,SK-MEL-5 melanoma,1.75 µM
same,TGI,SK-MEL-5 melanoma,3.51 µM
same,GI50,SK-OV-3 ovarian,3.26 µM
same,TGI,SK-OV-3 ovarian,11.9 µM
same,GI50,SN12C renal,1.74 µM
same,TGI,SN12C renal,4.14 µM
same,GI50,SNB-19 CNS,3.36 µM
same,TGI,SNB-19 CNS,12.7 µM
same,GI50,SNB-75 CNS,3.99 µM
same,TGI,SNB-75 CNS,29.2 µM
same,GI50,SR leukemia,1.84 µM
same,TGI,SR leukemia,6.86 µM
same,GI50,SW-620 colon,1.81 µM
same,TGI,SW-620 colon,7.84 µM
same,GI50,T-47D breast,2.09 µM
same,TGI,T-47D breast,5.76 µM
same,GI50,TK-10 renal,5.97 µM
same,TGI,TK-10 renal,40.2 µM
same,GI50,U251 CNS,1.65 µM
same,TGI,U251 CNS,3.69 µM
same,GI50,UACC-257 melanoma,4.62 µM
same,TGI,UACC-257 melanoma,22.5 µM
same,GI50,UACC-62 melanoma,1.59 µM
same,TGI,UACC-62 melanoma,3.18 µM
same,GI50,UO-31 renal,7.47 µM
same,TGI,UO-31 renal,21.1 µM
